According to patent US12054449B2, “Phenylcarbamate crystalline form and method for manufacturing the same” (BIO-PHARM SOLUTIONS CO., LTD., priority 2021, dated 2024):

Assay: Polymorphic screening with solvents and solvent/antisolvent
Type: physicochemical

For `C[C@H](OC(N)=O)[C@@H](O)c1ccccc1Cl` [ED01748-006-001-00, 1-(2-chlorophenyl)-(S)-1-hydroxypropyl-(S)-2-carbamate], the Result (Exp. 1, 2-propanol 60 ul / Toluene 100 ul, Shaken RT, refrigerated) was “Soluble”, the Initial result (Exp. 1, solvent 2-propanol 60 ul, anti-solvent Toluene 100 ul) was “Soluble” and the Result (Exp. 2, 2-propanol 60 ul / Heptane 200 ul, Shaken RT, refrigerated) was “Soluble”. The Initial result (Exp. 2, solvent 2-propanol 60 ul, anti-solvent Heptane 200 ul) was “Soluble”, the Result (Exp. 3, 2-propanol 60 ul / Diethyl ether 100 ul, Shaken RT, refrigerated) was “Soluble” and the Initial result (Exp. 3, solvent 2-propanol 60 ul, anti-solvent Diethyl ether 100 ul) was “Soluble”. The Result (Exp. 4, 2-propanol 60 ul / TBME 200 ul, Shaken RT, refrigerated) was “Soluble”, the Initial result (Exp. 4, solvent 2-propanol 60 ul, anti-solvent TBME 200 ul) was “Soluble” and the Result (Exp. 5, acetone 60 ul / Toluene 100 ul, Shaken RT, refrigerated) was “Soluble”. For the same compound, the Initial result (Exp. 5, solvent acetone 60 ul, anti-solvent Toluene 100 ul) was “Soluble”, the Result (Exp. 6, acetone 60 ul / Heptane 175 ul, notes: oil) was “oil” and the Initial result (Exp. 6, solvent acetone 60 ul, anti-solvent Heptane 175 ul) was “Cloudy”. The Result (Exp. 7, acetone 60 ul / Diethyl ether 100 ul, Shaken RT, refrigerated) was “Soluble”, the Initial result (Exp. 7, solvent acetone 60 ul, anti-solvent Diethyl ether 100 ul) was “Soluble” and the Result (Exp. 8, acetone 60 ul / TBME 100 ul, Shaken RT, refrigerated) was “Soluble”. The Initial result (Exp. 8, solvent acetone 60 ul, anti-solvent TBME 100 ul) was “Soluble”, the “Result: crystalline form obtained (XRPD)” value (Exp. 9, chloroform 60 ul / Toluene 100 ul) was “Pattern 9” and the Result (Exp. 9, chloroform 60 ul / Toluene 100 ul, Shaken RT, solid XRPD) was “Crystalline”. For the same compound, the Initial result (Exp. 9, solvent chloroform 60 ul, anti-solvent Toluene 100 ul) was “Precipitate”, the “Result: crystalline form obtained (XRPD)” value (Exp. 10, chloroform 60 ul / Heptane 25 ul) was “Pattern 8” and the Result (Exp. 10, chloroform 60 ul / Heptane 25 ul, Shaken RT, solid XRPD) was “Crystalline”. For the same compound, the Initial result (Exp. 10, solvent chloroform 60 ul, anti-solvent Heptane 25 ul) was “Precipitate”, the Result (Exp. 11, chloroform 60 ul / Diethyl ether 100 ul, Shaken RT, refrigerated) was “Soluble” and the Initial result (Exp. 11, solvent chloroform 60 ul, anti-solvent Diethyl ether 100 ul) was “Soluble”. The Result (Exp. 12, chloroform 60 ul / TBME 100 ul, Shaken RT, refrigerated) was “Soluble”, the Initial result (Exp. 12, solvent chloroform 60 ul, anti-solvent TBME 100 ul) was “Soluble” and the “Result: crystalline form obtained (XRPD)” value (Exp. 13, DCM 80 ul / Toluene 100 ul) was “Pattern 9”. The Result (Exp. 13, DCM 80 ul / Toluene 100 ul, Shaken RT, solid XRPD) was “Crystalline”, the Initial result (Exp. 13, solvent DCM 80 ul, anti-solvent Toluene 100 ul) was “Precipitate” and the Result (Exp. 14 (second line so numbered), DCM 80 ul / Diethyl ether 100 ul, Shaken RT, refrigerated) was “Soluble”. The Initial result (Exp. 14 (second line so numbered), solvent DCM 80 ul, anti-solvent Diethyl ether 100 ul) was “Soluble”, the “Result: crystalline form obtained (XRPD)” value (Exp. 14, DCM 80 ul / Heptane 50 ul) was “Pattern 8” and the Result (Exp. 14, DCM 80 ul / Heptane 50 ul, Shaken RT, solid XRPD) was “Crystalline”. For the same compound, the Initial result (Exp. 14, solvent DCM 80 ul, anti-solvent Heptane 50 ul) was “Precipitate”, the Result (Exp. 16, DCM 80 ul / TBME 100 ul, Shaken RT, refrigerated) was “Soluble” and the Initial result (Exp. 16, solvent DCM 80 ul, anti-solvent TBME 100 ul) was “Soluble”. For the same compound, the “Result: crystalline form obtained (XRPD)” value (Exp. 18, ethyl acetate 60 ul / Heptane 100 ul) was “Pattern 11”, the Result (Exp. 18, ethyl acetate 60 ul / Heptane 100 ul, Oil, then solid formed) was “Crystalline” and the Initial result (Exp. 18, solvent ethyl acetate 60 ul, anti-solvent Heptane 100 ul) was “Cloudy”. For the same compound, the Result (Exp. 19, ethyl acetate 60 ul / Diethyl ether 100 ul, Shaken RT, refrigerated) was “Soluble”, the Initial result (Exp. 19, solvent ethyl acetate 60 ul, anti-solvent Diethyl ether 100 ul) was “Soluble” and the Result (Exp. 20, ethyl acetate 60 ul / TBME 100 ul, Shaken RT, refrigerated) was “Soluble”. For the same compound, the Initial result (Exp. 20, solvent ethyl acetate 60 ul, anti-solvent TBME 100 ul) was “Soluble”, the Result (Exp. 21, ethyl acetate 60 ul / Pentane 225 ul, notes: Oil) was “Oil” and the Initial result (Exp. 21, solvent ethyl acetate 60 ul, anti-solvent Pentane 225 ul) was “Cloudy”. The Result (Exp. 22, ethyl acetate 60 ul / cyclohexane 350 ul, Shaken RT, solid XRPD) was “Crystalline,”, the Initial result (Exp. 22, solvent ethyl acetate 60 ul, anti-solvent cyclohexane 350 ul) was “Precipitate” and the Result (Exp. 23, ethyl acetate 60 ul / methylcyclohexane 325 ul, Shaken RT, solid XRPD) was “Crystalline,”. The Initial result (Exp. 23, solvent ethyl acetate 60 ul, anti-solvent methylcyclohexane 325 ul) was “Precipitate”, the Result (Exp. 24, chloroform 60 ul / Pentane 75 ul, Shaken RT, solid XRPD) was “Crystalline” and the Initial result (Exp. 24, solvent chloroform 60 ul, anti-solvent Pentane 75 ul) was “Precipitate”. The Result (Exp. 25, chloroform 60 ul / cyclohexane 125 ul, Shaken RT, solid XRPD) was “Crystalline”, the Initial result (Exp. 25, solvent chloroform 60 ul, anti-solvent cyclohexane 125 ul) was “Precipitate” and the Result (Exp. 26, chloroform 60 ul / methylcyclohexane 75 ul, Shaken RT, solid XRPD) was “Crystalline”. For the same compound, the Initial result (Exp. 26, solvent chloroform 60 ul, anti-solvent methylcyclohexane 75 ul) was “Precipitate”, the Result (Exp. 27, DCM 80 ul / Pentane 100 ul, Shaken RT, solid XRPD) was “Crystalline” and the Initial result (Exp. 27, solvent DCM 80 ul, anti-solvent Pentane 100 ul) was “Precipitate”. The Result (Exp. 28, DCM 80 ul / cyclohexane 50 ul, Shaken RT, solid XRPD) was “Crystalline”, the Initial result (Exp. 28, solvent DCM 80 ul, anti-solvent cyclohexane 50 ul) was “Precipitate” and the Result (Exp. 29, DCM 80 ul / methylcyclohexane 50 ul, Shaken RT, solid XRPD) was “Crystalline”. For the same compound, the Initial result (Exp. 29, solvent DCM 80 ul, anti-solvent methylcyclohexane 50 ul) was “Precipitate”, the Result (Exp. number not given, ethyl acetate 60 ul / Toluene 100 ul, Shaken RT, refrigerated) was “Soluble” and the Initial result (Exp. number not given, solvent ethyl acetate 60 ul, anti-solvent Toluene 100 ul) was “Soluble”.
